According to patent US20140371074A1, “METHOD TO INCREASE PLANT YIELD” (priority 2012, published 2014):

Test system: soybean cultivars L2711R2X, L3385R2
Experiment: Field 2012: 2,4-D Low Vol 4 + crop oil drizzled onto soil at R1 stage, Laurel, Iowa (Table 2b)
Format: in vivo
Procedure: Plants were treated by drizzling via low pressure spraying the 2,4-D solution onto the soil along each side of the rows when plants are at the R1 stage of growth. The date of planting was May 15, 2012 and the date of harvest was Oct. 2, 2012 at plots in Alexander, Iowa (Table 2a) and Laurel, Iowa (Table 2b). Plants were grown from Roundup Ready seed and were sprayed with glyphosate for weed control. Plants were treated with between 1X and 5.5X of 2,4-D solution mixed with crop oil at 15.3 ounces of 2,4-D Low Vol 4 plus 0.32 ounces crop oil per gallon, where 1X is equivalent to approximately 0.45 pounds acid equivalent of 2,4-D. Two repetitions were performed at different plots. […] The moisture percentages were used in correcting each yield to a 13% moisture basis.

[1] = 1.0X Rate, L2711R2X, 1X~0.45 lb a.e.
[2] = 1.0X Rate, L3385R2, 1X~0.45 lb a.e.
[3] = 1.5X Rate, L2711R2X, 1X~0.45 lb a.e.
[4] = 1.5X Rate, L3385R2, 1X~0.45 lb a.e.
[5] = 2.0X Rate, L2711R2X, 1X~0.45 lb a.e.
[6] = 2.0X Rate, L3385R2, 1X~0.45 lb a.e.
[7] = 2.5X Rate, L2711R2X, 1X~0.45 lb a.e.
[8] = 2.5X Rate, L3385R2, 1X~0.45 lb a.e.
[9] = 3.0X Rate, L2711R2X, 1X~0.45 lb a.e.
[10] = 3.0X Rate, L3385R2, 1X~0.45 lb a.e.
[11] = 3.5X Rate, L2711R2X, 1X~0.45 lb a.e.
[12] = 3.5X Rate, L3385R2, 1X~0.45 lb a.e.
[13] = 4.0X Rate, L2711R2X, 1X~0.45 lb a.e.
[14] = 4.0X Rate, L3385R2, 1X~0.45 lb a.e.
[15] = 4.5X Rate, L2711R2X, 1X~0.45 lb a.e.
[16] = 4.5X Rate, L3385R2, 1X~0.45 lb a.e.
[17] = 5.0X Rate, L2711R2X, 1X~0.45 lb a.e.
[18] = 5.0X Rate, L3385R2, 1X~0.45 lb a.e.
[19] = 5.5X Rate, L2711R2X, 1X~0.45 lb a.e.
[20] = 5.5X Rate, L3385R2, 1X~0.45 lb a.e.
[21] = Average over 1.0X-3.0X Rates, L2711R2X
[22] = Average over 1.0X-3.0X Rates, L3385R2
[23] = Average over 1.0X-5.5X Rates, L2711R2X
[24] = Average over 1.0X-5.5X Rates, L3385R2
[25] = Overall location average, all rates, both cultivars

With `O=C(O)COc1ccc(Cl)cc1Cl` [2,4-D, 2,4-Dichlorophenoxyacetic acid] the “Average Yield” value [1] was 64.93 Bu/A, the “Repetition 1 Weight” value [1] was 5.6 Lbs and the “Repetition 1 Yield” value [1] was 62.69 Bu/A. For the same compound, the “Repetition 2 Weight” value [1] was 6.0 Lbs, the “Repetition 2 Yield” value [1] was 67.16 Bu/A and the “Average Yield” value [2] was 72.50 Bu/A. For the same compound, the “Repetition 1 Weight” value [2] was 6.7 Lbs, the “Repetition 1 Yield” value [2] was 73.40 Bu/A and the “Repetition 2 Weight” value [2] was 6.5 Lbs. The “Repetition 2 Yield” value [2] was 71.60 Bu/A, the “Average Yield” value [3] was 67.20 Bu/A and the “Repetition 1 Weight” value [3] was 6.6 Lbs. The “Repetition 1 Yield” value [3] was 73.88 Bu/A, the “Repetition 2 Weight” value [3] was 5.4 Lbs and the “Repetition 2 Yield” value [3] was 60.51 Bu/A. The “Average Yield” value [4] was 75.70 Bu/A, the “Repetition 1 Weight” value [4] was 6.8 Lbs and the “Repetition 1 Yield” value [4] was 74.34 Bu/A. For the same compound, the “Repetition 2 Weight” value [4] was 6.9 Lbs, the “Repetition 2 Yield” value [4] was 77.07 Bu/A and the “Average Yield” value [5] was 63.41 Bu/A. The “Repetition 1 Weight” value [5] was 5.7 Lbs, the “Repetition 1 Yield” value [5] was 64.01 Bu/A and the “Repetition 2 Weight” value [5] was 5.6 Lbs. The “Repetition 2 Yield” value [5] was 62.82 Bu/A, the “Average Yield” value [6] was 70.93 Bu/A and the “Repetition 1 Weight” value [6] was 6.3 Lbs. The “Repetition 1 Yield” value [6] was 70.22 Bu/A, the “Repetition 2 Weight” value [6] was 6.4 Lbs and the “Repetition 2 Yield” value [6] was 71.64 Bu/A. The “Average Yield” value [7] was 63.35 Bu/A, the “Repetition 1 Weight” value [7] was 5.7 Lbs and the “Repetition 1 Yield” value [7] was 63.87 Bu/A. The “Repetition 2 Weight” value [7] was 5.6 Lbs, the “Repetition 2 Yield” value [7] was 62.82 Bu/A and the “Average Yield” value [8] was 71.91 Bu/A. For the same compound, the “Repetition 1 Weight” value [8] was 6.3 Lbs, the “Repetition 1 Yield” value [8] was 70.60 Bu/A and the “Repetition 2 Weight” value [8] was 6.5 Lbs. For the same compound, the “Repetition 2 Yield” value [8] was 73.23 Bu/A, the “Average Yield” value [9] was 63.84 Bu/A and the “Repetition 1 Weight” value [9] was 5.5 Lbs. For the same compound, the “Repetition 1 Yield” value [9] was 61.50 Bu/A, the “Repetition 2 Weight” value [9] was 5.9 Lbs and the “Repetition 2 Yield” value [9] was 66.19 Bu/A. For the same compound, the “Average Yield” value [10] was 71.91 Bu/A, the “Repetition 1 Weight” value [10] was 6.6 Lbs and the “Repetition 1 Yield” value [10] was 74.12 Bu/A. The “Repetition 2 Weight” value [10] was 6.2 Lbs, the “Repetition 2 Yield” value [10] was 69.70 Bu/A and the “Repetition 1 Weight” value [11] was 5.7 Lbs. The “Repetition 1 Yield” value [11] was 63.74 Bu/A, the “Average Yield” value (3.5X Rate, L2711R2X, 1X~0.45 lb a.e., repetition 1 only) was 63.74 Bu/A and the “Repetition 1 Weight” value [12] was 6.3 Lbs. The “Repetition 1 Yield” value [12] was 68.94 Bu/A, the “Average Yield” value (3.5X Rate, L3385R2, 1X~0.45 lb a.e., repetition 1 only) was 68.94 Bu/A and the “Repetition 1 Weight” value [13] was 6.1 Lbs. The “Repetition 1 Yield” value [13] was 68.28 Bu/A, the “Average Yield” value (4.0X Rate, L2711R2X, 1X~0.45 lb a.e., repetition 1 only) was 68.28 Bu/A and the “Repetition 1 Weight” value [14] was 6.7 Lbs. For the same compound, the “Repetition 1 Yield” value [14] was 74.76 Bu/A, the “Average Yield” value (4.0X Rate, L3385R2, 1X~0.45 lb a.e., repetition 1 only) was 74.76 Bu/A and the “Repetition 1 Weight” value [15] was 6.3 Lbs. The “Repetition 1 Yield” value [15] was 70.60 Bu/A, the “Average Yield” value (4.5X Rate, L2711R2X, 1X~0.45 lb a.e., repetition 1 only) was 70.60 Bu/A and the “Repetition 1 Weight” value [16] was 6.6 Lbs. The “Repetition 1 Yield” value [16] was 72.78 Bu/A, the “Average Yield” value (4.5X Rate, L3385R2, 1X~0.45 lb a.e., repetition 1 only) was 72.78 Bu/A and the “Repetition 1 Weight” value [17] was 5.9 Lbs. The “Repetition 1 Yield” value [17] was 66.11 Bu/A, the “Average Yield” value (5.0X Rate, L2711R2X, 1X~0.45 lb a.e., repetition 1 only) was 66.11 Bu/A and the “Repetition 1 Weight” value [18] was 6.6 Lbs. The “Repetition 1 Yield” value [18] was 74.12 Bu/A, the “Average Yield” value (5.0X Rate, L3385R2, 1X~0.45 lb a.e., repetition 1 only) was 74.12 Bu/A and the “Repetition 1 Weight” value [19] was 5.4 Lbs. The “Repetition 1 Yield” value [19] was 60.45 Bu/A, the “Average Yield” value (5.5X Rate, L2711R2X, 1X~0.45 lb a.e., repetition 1 only) was 60.45 Bu/A and the “Repetition 1 Weight” value [20] was 6.3 Lbs. For the same compound, the “Repetition 1 Yield” value [20] was 70.37 Bu/A, the “Average Yield” value (5.5X Rate, L3385R2, 1X~0.45 lb a.e., repetition 1 only) was 70.37 Bu/A and the “Repetition 2 Weight” value [21] was 5.7 Lbs. For the same compound, the “Repetition 2 Yield” value [21] was 63.90 Bu/A, the “Repetition 2 Weight” value [22] was 6.5 Lbs and the “Repetition 2 Yield” value [22] was 72.65 Bu/A. The “Average Yield” value [23] was 65.19 Bu/A, the “Repetition 1 Weight” value [23] was 5.9 Lbs and the “Repetition 1 Yield” value [23] was 65.51 Bu/A. For the same compound, the “Average Yield” value [24] was 72.39 Bu/A, the “Repetition 1 Weight” value [24] was 6.5 Lbs and the “Repetition 1 Yield” value [24] was 72.36 Bu/A. For the same compound, the “Average Yield” value [25] was 68.79 Bu/A, the “Repetition 1 Weight” value [25] was 6.2 Lbs and the “Repetition 1 Yield” value [25] was 68.94 Bu/A. For the same compound, the “Repetition 2 Weight” value [25] was 6.1 Lbs and the “Repetition 2 Yield” value [25] was 68.27 Bu/A.
